# Where “and” joins values, the source holds several entries; their conditions need not be identical. Equal values may be shown once.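 Each compound was tested at five concentrations against cells in 96-well plates for 48 hours. The concentration for 50% growth inhibition is given as GI50. At the TGI there is no net growth.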
# Assays:
# Experiment in all cases: NCI tumour cell line growth inhibition, 48 h
# RXF 393 renal = test system: RXF 393 renal
# EKVX NSCLC = test system: EKVX NSCLC
# SNB-75 CNS = test system: SNB-75 CNS
# SF-268 CNS = test system: SF-268 CNS
# M14 melanoma = test system: M14 melanoma
# MDA-MB-435 = test system: MDA-MB-435
# OVCAR-8 ovarian = test system: OVCAR-8 ovarian
# SK-MEL-5 melanoma = test system: SK-MEL-5 melanoma
# NCI-H23 lung = test system: NCI-H23 lung
# RPMI-8226 leukemia = test system: RPMI-8226 leukemia
Structure (SMILES),GI50 (RXF 393 renal),TGI (RXF 393 renal),GI50 (EKVX NSCLC),TGI (EKVX NSCLC),GI50 (SNB-75 CNS),TGI (SNB-75 CNS),GI50 (SF-268 CNS) [µM],TGI (SF-268 CNS),GI50 (M14 melanoma),TGI (M14 melanoma),GI50 (MDA-MB-435),TGI (MDA-MB-435),GI50 (OVCAR-8 ovarian),TGI (OVCAR-8 ovarian),GI50 (SK-MEL-5 melanoma),TGI (SK-MEL-5 melanoma),GI50 (NCI-H23 lung),TGI (NCI-H23 lung),GI50 (RPMI-8226 leukemia) [µM],TGI (RPMI-8226 leukemia)
CN(C)C(=O)[C@H](O)[C@H](Cc1ccccc1)NC(=O)c1cc2cc(Cl)ccc2[nH]1,20 µM,62.9 µM,25.7 µM,> 100 µM,17.4 µM,65.6 µM,21.1,73.3 µM,23.2 µM,67.6 µM,22.9 µM,70.1 µM,28.8 µM,> 100 µM,15.6 µM,30.6 µM,25.8 µM,> 100 µM,19.5,66.6 µM
CC1=C(O)C(=O)C=C2C1=CC=C1[C@@]2(C)CC[C@@]2(C)[C@@H]3C[C@](C)(C(=O)O)CC[C@]3(C)CC[C@]12C,–,0.024 µM,–,0.174 µM,–,0.327 µM,–,0.106 µM,–,0.141 µM,–,0.157 µM,–,0.0712 µM,–,0.228 µM,–,0.181 µM,–,0.0585 µM
CCc1nc(C(N)=O)c(Nc2ccc(N3CCC(N4CCN(C)CC4)CC3)c(OC)c2)nc1NC1CCOCC1,1.39 µM and 0.358 µM and 1.7 µM,4.54 µM and 1.12 µM and 6.27 µM,0.83 µM and 0.375 µM and 0.727 µM,18.2 µM and > 4.97 µM and 19 µM,0.598 µM and 0.423 µM and 0.67 µM,5.4 µM and 1.91 µM and 7.74 µM,–,22.8 µM and > 2.72 µM and 24.5 µM,1.1 µM and 0.253 µM and 0.961 µM,16.4 µM and > 2.57 µM and 17.9 µM,3.23 µM and 0.511 µM and 3.96 µM,20.7 µM and > 6.91 µM and 20.8 µM,10.3 µM and 1.62 µM and 10.1 µM,36.8 µM and > 10 µM and 30.2 µM,12.4 µM and > 10 µM and 13.2 µM,25.4 µM and > 10 µM and 26.4 µM,1.48 µM and 0.386 µM and 1.2 µM,23.5 µM and > 2.7 µM and 24.7 µM,–,30.8 µM and > 2.71 µM and 36.4 µM
CCn1c(SCc2ccc(C)cc2)nnc1-c1nn(-c2ccc(Cl)cc2Cl)c(-c2ccc(Cl)cc2)c1C,2.69 µM,10.9 µM,2.88 µM,13 µM,2.21 µM,11.7 µM,3.06,14.9 µM,1.99 µM,10.8 µM,2.85 µM,11.5 µM,2.12 µM,10.7 µM,1.4 µM,2.74 µM,2.24 µM,12.5 µM,0.464,3.05 µM
COc1cccc2c(=O)c3c(sc12)c(N1CCNCC1)nc1ccccc13,1.53 µM,3.05 µM,1.62 µM,3.17 µM,1.56 µM,2.98 µM,1.75,3.45 µM,1.86 µM,3.48 µM,1.76 µM,3.23 µM,2.43 µM,6.5 µM,1.7 µM,3.09 µM,1.62 µM,3.1 µM,2.39,5.8 µM
CC(=O)C(=CN1CCN(C(=O)c2ccco2)C1=S)C(C)=O,1.84 µM,6.24 µM,11.2 µM,28.6 µM,9.02 µM,71.4 µM,2.57,6.72 µM,4.03 µM,15.4 µM,12.6 µM,49 µM,8.15 µM,45.1 µM,16.6 µM,31.5 µM,16.4 µM,31.6 µM,2.74,> 100 µM
O=S(=O)(Nc1cc(Sc2cccc3cccnc23)c(O)c2ccccc12)c1ccccc1,2.4 µM,12.3 µM,1.01 µM,8.55 µM,3.23 µM,16.9 µM,1.48,12.8 µM,1.12 µM,9.2 µM,2.01 µM,12.6 µM,0.631 µM,> 100 µM,1.36 µM,3.05 µM,1.93 µM,12.8 µM,2.38,7.9 µM

# Source: PubChem BioAssay (NCI)
